Experimental data: patent publication EP4803523A1, “FUSED HETEROARYL COMPOUND, PREPARATION METHOD THEREFOR, AND USE THEREOF IN MEDICINE” (Jiangsu Hengrui Pharmaceuticals Co., Ltd., priority 2023, dated 2025)

Legend:
[1] = tested on: AGS; assay: 3D cell proliferation inhibition assay (CellTiter-Glo 3D); type: cell-based; conditions: Homo sapiens, 120 h; AGS cells, KRAS G12D, 3D culture, 5 days with compound
Experimental: (§1) This experiment uses the cells listed in the table below to evaluate the inhibitory effects of the compounds on the proliferation of KRAS mutant or KRAS amplified cells.
(§2) On the first day of the experiment, cells that were growing well and had reached 70%-80% confluence were digested, resuspended in culture medium, and the cell density was adjusted to the desired level. In a U-shaped low-attachment 96-well plate (Corning, 7007), 90 µL of cell suspension was added per well, with the cell density as shown in the table above. The cell plate was centrifuged at 2500 rpm for 5 minutes and then placed in an incubator for 24 hours of culture. On the second day, the 20 mM test compound dissolved in DMSO was diluted with DMSO to the first concentration of 2 or 0.2 mM, and then serially diluted in a 5-fold gradient to obtain 9 concentration points, with the control well containing DMSO. The serially diluted compound was then further diluted 20-fold with culture medium. 10 µL of the test compound diluted in culture medium was added to each well of the cell plate. The final concentrations of the compound were 9 points in a 5-fold serial dilution starting from 10 or 1 µM. Cell wells containing 0.5% DMSO were set as vehicle control wells, and wells containing only culture medium and 0.5% DMSO were set as blank control wells. The cell plate was centrifuged at 2000 rpm for 3 minutes and then placed in an incubator for 5 days of culture. On the seventh day, the 96-well cell culture plate was taken out, and 50 µL of the luminescent cell viability detection reagent, CellTiter-Glo® 3D Cell Viability Assay (Promega, G9683), was added to each well. After shaking at room temperature for 25 minutes, the mixture was pipetted up and down to mix, and 100 µL was transferred from each well to a white, opaque-bottom OptiPlate™-96 well plate (PerkinElmer, 6005290). The luminescence signal value was read using a multimode microplate reader (PerkinElmer, EnVision2105).
(§3) The inhibition rate was calculated using the following formula: Inhibition rate = (Luminescence value vehicle control well - Luminescence value test compound)/(Luminescence value vehicle control well - Luminescence value blank control well) × 100%. The IC50 values of the compound inhibitory activity were calculated using Graphpad Prism software. Table 1. Data of inhibitory activity on 3D cell proliferation (unit: nM)

[2] = tested on: AsPC-1; assay: as above; type: cell-based; conditions: Homo sapiens, ASPC1, 120 h; AsPC-1 cells, KRAS G12D, 3D culture, 5 days with compound
Experimental: as §1, §2, §3

[3] = tested on: GP2d; assay: as above; type: cell-based; conditions: GP2d, 120 h, GP2d cells, KRAS G12D, 3D culture, 5 days with compound
Experimental: as §1, §2, §3

[4] = tested on: H358; assay: as above; type: cell-based; conditions: Homo sapiens, NCI-H358, 120 h; H358 cells, KRAS G12C, 3D culture, 5 days with compound
Experimental: as §1, §2, §3

[5] = tested on: MKN1; assay: as above; type: cell-based; conditions: Homo sapiens, MKN-1, 120 h; MKN1 cells, KRAS Amp, 3D culture, 5 days with compound
Experimental: as §1, §2, §3

[6] = tested on: SW620; assay: as above; type: cell-based; conditions: Homo sapiens, SW-620, 120 h; SW620 cells, KRAS G12V, 3D culture, 5 days with compound
Experimental: as §1, §2, §3

[7] = Pharmacokinetic evaluation, mouse experiment (oral gavage, plasma LC-MS/MS); type: in vivo; conditions: balb/c nude mice, female, oral gavage (i.g.), 20.0 mg/kg
Experimental: Using balb/c nude mice as the test animals, the plasma concentrations of the example compounds at different time points were determined by LC-MS/MS following oral gavage (i.g.) administration. The pharmacokinetic behaviours of the compounds of the present disclosure in mice were investigated, and their pharmacokinetic profiles were evaluated.
Nine balb/c nude mice, female, were provided by Beijing Vital River Laboratory Animal Technology Co., Ltd. (Production License Number: SCXK(Zhejiang) 2024-0001).
A given amount of the test compound was weighed and formulated with 5% DMF + 45% PG + 50% (10% HS15-pH7.4 buffer) to prepare a 2.0 mg/mL clear and colourless solution.
The administration dose was 20.0 mg/kg, and the administration volume was 10 mL/kg.
Blood samples (0.1 ml) were collected from the orbit before administration and at 0.25, 0.5, 1.0, 2.0, 4.0, 6.0, 8.0, 11.0, and 24.0 hours after administration. The samples were placed in EDTA-K2 anticoagulant tubes, centrifuged at 10,000 rpm for 1 minute (4°C), and the plasma was separated within 1 hour and stored at -20°C or -80°C until analysis. The entire process from blood collection to centrifugation was performed in ice bath conditions. Food was provided 2 hours after administration.
The concentration of the test compound in mouse plasma after administration was determined as follows: 20 µL of the plasma sample collected at each time point after administration was taken, and 200 µL of internal standard acetonitrile solution (containing 20 ng/mL verapamil) was added. The mixture was vortexed and then centrifuged at 4000 rpm for 15 minutes; the supernatant was taken for LC-MS/MS analysis.

[8] = in vivo; conditions: both, SD, rat, plasma, po
Experimental: Using SD rats as the test animals, the plasma concentrations of the example compounds at different time points were determined by LC-MS/MS following oral gavage (i.g.) administration. The pharmacokinetic behaviours of the compounds of the present disclosure in rats were investigated, and their pharmacokinetic profiles were evaluated.
Blood samples (0.2 mL) were collected from the orbit before administration and at 0.25, 0.5, 1.0, 2.0, 4.0, 6.0, 8.0, 11.0, and 24.0 hours after administration. The samples were placed in EDTA-K2 anticoagulant tubes, centrifuged at 10,000 rpm for 2 minute (4°C), and the plasma was separated within 1 hour and stored at -20°C or -80°C until analysis. The entire process from blood collection to centrifugation was performed in ice bath conditions.
The mixture was vortexed and then centrifuged at 4000 rpm for 15 minutes; the supernatant was taken for LC-MS/MS analysis. […] The mixture was vortexed and then centrifuged at 3700 rpm for 10 minutes; the supernatant was taken for LC-MS/MS analysis.
The mixture was vortexed and then centrifuged at 4000 rpm for 15 minutes; the supernatant was taken for LC-MS/MS analysis. […] The mixture was vortexed and then centrifuged at 4000 rpm for 15 minutes; the supernatant was taken for LC-MS/MS analysis.

In the case of `N#Cc1c(N)sc2c(F)ccc(-c3c4c(c5cnc(OCC67CCCN6CC(=C(F)F)C7)nc5c3F)COC4)c12` (single isomer, unassigned) [Example 44A], the IC50 [1] is reported as 5.03 nM, the IC50 [2] is reported as 8.36 nM and the IC50 [3] is reported as 2.59 nM. It also gave an IC50 [4] of 2.78 nM, an IC50 [5] of 1.3 nM and an IC50 [6] of 3.4 nM.
For `C[C@@H](O)CN1CC2CCC(C1)N2c1nc(OCC2(CN3CCC(=C(F)F)CC3)CC2)nc2c(F)c(-c3ncc(F)c4sc(N)c(C#N)c34)c3c(c12)COC3` [Example 2, 2-amino-4-(3-((1-((4-(difluoromethylene)piperidin-1-yl)methyl)cyclopropyl)methoxy)-5-fluoro-1-(3-((R)-2-hydroxypropyl)-3,8-diazabicyclo[3.2.1]oct-8-yl)-7,9-dihydrofuro[3,4-f]quinazolin-6-yl)-7-fluorothieno[3,2-c]pyridine-3-carbonitrile], the IC50 [1] was 2.36 nM, the IC50 [2] was 6.18 nM and the IC50 [3] was 1.79 nM. The Vd/F ([7]; read-out: Apparent volume of distribution Vz/F) was 9.07 L/kg, the AUC(0-t) ([7]; read-out: Area under the curve AUC0-t) was 9100 ng·h/mL and the CL/F ([7]; read-out: Clearance CL/F) was 36.5 mL/min/kg. For the same compound, the half-life ([7]; read-out: Half life T1/2 (converted)) was 2.87 h, the Cmax ([7]; read-out: Plasma concentration Cmax) was 1060 ng/mL and the AUC(0-t) ([8]; 20 mg/kg) was 5170 ng·h/mL. For the same compound, the CL/F ([8]; 20 mg/kg) was 65.5 mL/min/kg, the Cmax ([8]; 20 mg/kg) was 377 ng/mL and the Vd/F ([8]; 20 mg/kg) was 28 L/kg. The half-life ([8]; 20 mg/kg) was 5.52 h, the AUC(0-t) ([8]; 40 mg/kg) was 17600 ng·h/mL and the CL/F ([8]; 40 mg/kg) was 36.7 mL/min/kg. It also gave a Cmax ([8]; 40 mg/kg) of 1170 ng/mL, a Vd/F ([8]; 40 mg/kg) of 19.6 L/kg and a half-life ([8]; 40 mg/kg) of 6.7 h.
Work on `N#Cc1c(N)sc2c(F)ccc(-c3c4c(c5cnc(OCC67CCCN6CC(=CF)C7)nc5c3F)COC4)c12` (centres unmarked) [Example 15, 2-Amino-7-fluoro-4-(5-fluoro-3-((2-(fluoromethylene)tetrahydro-1H-pyrrolizin-7a(5H)-yl)methoxy)-7,9-dihydrofuro[3,4-f]quinazolin-6-yl)benzo[b]thiophene-3-carbonitrile] yielded an IC50 [1] of 9.12 nM, an IC50 [2] of 14.7 nM and an IC50 [3] of 1.71 nM. It also gave an IC50 [5] of 6.9 nM and an IC50 [6] of 7.9 nM.
For `N#Cc1c(N)sc2c(F)ccc(-c3c4c(c5cnc(OCC67CCCN6CC(=C(F)F)C7)nc5c3F)COC4)c12` (centres unmarked) [Example 27, 2-Amino-4-(3-((2-(difluoromethylene)tetrahydro-1H-pyrrolizin-7a(5H)-yl)methoxy)-5-fluoro-7,9-dihydrofuro[3,4-f]quinazolin-6-yl)-7-fluorobenzo[b]thiophene-3-carbonitrile], the IC50 [3] was 6.61 nM, the IC50 [4] was 8.85 nM and the IC50 [5] was 8.2 nM. It also gave an IC50 [6] of 12.4 nM.
For `N#Cc1c(N)sc2c(F)ccc(-c3c4c(c5c(C6CC6)nc(OC[C@@]67CCCN6C[C@H](F)C7)nc5c3F)COC4)c12` [Example 36, 2-Amino-4-(1-cyclopropyl-5-fluoro-3-(((2R,7aS)-2-fluorotetrahydro-1H-pyrrolizin-7a(5H)-yl)methoxy)-7,9-dihydrofuro[3,4-f]quinazolin-6-yl)-7-fluorobenzo[b]thiophene-3-carbonitrile], the IC50 [4] was 8.04 nM and the IC50 [6] was 10.1 nM.
`N#Cc1c(N)sc2c(F)ccc(-c3c4c(c5cnc(OCC6(CN7CCC(=CF)CC7)CC6)nc5c3Cl)COC4)c12` [Example 39, 2-Amino-4-(5-chloro-3-((1-((4-(fluoromethylene)piperidin-1-yl)methyl)cyclopropyl)methoxy)-7,9-dihydrofuro[3,4-f]quinazolin-6-yl)-7-fluorobenzo[b]thiophene-3-carbonitrile] showed an IC50 [1] of 4.07 nM, an IC50 [2] of 7.65 nM and an IC50 [3] of 2.95 nM. The IC50 [4] was 4.76 nM, the IC50 [5] was 4 nM and the IC50 [6] was 12.7 nM.
